The text below walks through data of patent US9303017B2, “2,5-disubstituted-pyridyl nicotinic ligands, and methods of use thereof” (Georgetown University, priority 2011, dated 2016).

One experiment concerns the target α4β2 nAChR (Rattus norvegicus (Rat), UniProt P09483+P12390). As to the kind of experiment: biochemical. The class given is binding. How it is done:
In Vitro Binding Affinities for nAChR Subtypes. […] To determine selectivities of these compounds in binding assays among the three predominant nAChR subtypes, α3β4, α4β2 and α7, the ratios of Ki values (α3β4/α4β2 and α7/α4β2) were determined.
(§1) Cell Lines and Cell Culture. The cell lines expressing defined rat nAChR subtypes were established previously by stably transfecting HEK 293 cells with rat nAChR subunit genes. The cell line expressing human α4β2 nAChRs, YXα4β2H1, was established recently. These cell lines were maintained in minimum essential medium (MEM) supplemented with 10% fetal bovine serum, 100 units/mL penicillin G, […] and selective antibiotics at 37° C. with 5% CO2 in a humidified incubator. Fetal bovine serum was provided by Gemini Bio-Products (Woodland, Calif.). Tissue culture medium and antibiotics were obtained from Invitrogen Corporation (Carlsbad, Calif.), unless otherwise stated.
Briefly, cultured cells at >80% confluence were removed from their flasks (80 cm^2) with a disposable cell scraper and placed in 10 mL of 50 mM Tris.HCl buffer (pH 7.4, 4° C.). The cell suspension was centrifuged at 10,000×g for 5 min and the pellet was collected. The cell pellet was then homogenized in 10 mL buffer with a polytron homogenizer and centrifuged at 36,000 g for 10 min at 4° C. The membrane pellet was resuspended in fresh buffer, and aliquots of the membrane preparation were used for binding assays. […] Bound and free ligands were separated by vacuum filtration through Whatman GF/C filters treated with 0.5% polyethylenimine. The filter-retained radioactivity was measured by liquid scintillation counting. Specific binding was defined as the difference between total binding and nonspecific binding. Data from competition binding assays were analyzed using Prism 5 (GraphPad Software, San Diego, Calif.).
Pharmacological Properties. We measured the in vitro binding affinities of the ligands for defined receptor subtypes (α2β2, α2β4, α3β2, α3β4, α4β2, α4β4, α6β2, α6β4, and α7) expressed in stably transfected cell lines. […] Rat forebrain homogenates were included to allow comparison between the heterologous and native α4β2 and α7 nAChRs. See Table 1 for binding affinity values (Ki) of the ligands at the three major nAChR subtypes (α3β4. α4β2 and α7).

The target of the next experiment is rat α3β4 nAChRs (Rattus norvegicus (Rat), UniProt P04757+P12392). The experiment can be described thus: 86Rb+ efflux assay (activation and desensitization), α3β4. Type of experiment: cell-based. To be noted: read-out: IC50(10′) α3β4 nAChRs. How it is done:
In Vitro Effects on nAChR Function. […] Their agonist activities were assessed by measuring stimulated ^86Rb^+ efflux from stably transfected cells, either expressing human α4β2 nAChRs or rat α3β4 receptors.
as §1
^86Rb^+ Efflux Assay. Functional properties of compounds at nAChRs expressed in the transfected cells were measured using ^86Rb^+ efflux assays as described previously. In brief, cells expressing human α4β2 or rat α3β4 nAChRs were plated into 24-well plates coated with poly-D-lysine. The plated cells were grown at 37° C. for 18 to 24 hour to reach 85-95% confluence. The cells were then incubated in growth medium (0.5 mL/well) containing ^86Rb^+ (2 μCi/mL) for 4 hour at 37° C. The loading mixture was then aspirated, and the cells were washed four times with 1 mL buffer (15 mM HEPES, 140 mM NaCl, 2 mM KCl, 1 mM MgSO4, 1.8 mM CaCl2, 11 mM Glucose, pH 7.4). One mL of buffer with or without compounds to be tested was then added to each well. After incubation for 2 min, the assay buffer was collected for measurements of ^86Rb^+ released from the cells. Cells were then lysed by adding 1 mL of 100 mM NaOH to each well, and the lysate was collected for determination of the amount of ^86Rb^+ that was in the cells at the end of the efflux assay. Radioactivity of assay samples and lysates was measured by liquid scintillation counting. Total loading (cpm) was calculated as the sum of the assay sample and the lysate of each well. The amount of ^86Rb^+ efflux was expressed as a percentage of ^86Rb^+ loaded. […] For obtaining EC50 and Emax values, stimulation curves were constructed in which 8 different concentrations of a ligand were included in the assay. […] EC50, Emax and IC50(10′) values were determined by nonlinear least-squares regression analyses (GraphPad, San Diego, Calif.).
The functional properties of the ligands were determined by ^86Rb^+ efflux assays in cells expressing α3β4 and α4β2 nAChR subtypes. The functional activity of each ligand was measured for its agonism, antagonism and desensitization ability. Agonist activity for each of the ligands was tested at eight different concentrations. […] The full concentration-effect curves generated potency (EC50) and efficacy (Emax) of each ligand. […] We tested each ligand for antagonist activity at eight concentrations. The potency (IC50(0′)) of each ligand as an antagonist was derived from the full concentration-effect curves.

Bounds are passed on as bounds.

By Ki is commonly meant a dissociation constant, usually derived from enzyme kinetics or from competition with a known ligand. In general, IC50 refers to the concentration at which inhibition is half-maximal. On to `CCCCC#Cc1cnc(C)c(OC[C@@H]2CCN2)c1` [(S)-15, (S)-3-(azetidin-2-ylmethoxy)-5-(hex-1-ynyl)-2-methylpyridine], for which, on α4β2 nAChR (Table 3 (Example 4), read-out: Ki α4β2), the Ki is 12 nM. Also, the “Ki Ratio α3β4/α4β2” value at α4β2 nAChR (selectivity for α4β2 over α3β4) was 19,000. Moreover, the “Ki Ratio α7/α4β2” value on α4β2 nAChR (selectivity for α4β2 over α7) is 7,800. Further, the IC50 on rat α3β4 nAChRs is over 10000 nM.
